Where two headings read alike, the source gives them in different places.
What was measured:
NTS = test: Speed-of-action assay in NTS; type: cell-based, Schistosoma mansoni; settings: for Percentage of effect: NTS; for IC50: Schistosoma mansoni, read-out: IC50 (speed of action, NTS)
Description: (§1) To better characterize a selection of our LSD1i in vitro, we assessed the onset of their action, defined as the time required for an observable antischistosomal effect. […] For detailed percentages of activity at each time point, refer to the Supporting Information (Tables S2 and S3 in Supporting Information).

[1] = MTT cytotoxicity in MRC-5 cells; type: cell-based; settings: human, MRC-5 lung diploid fibroblast cells; for viability at 72 h, 5 µM / viability at 72 h, 10 µM / viability at 72 h, 25 µM / viability at 72 h, 50 µM: read-out: percentage of viability, 72 h; for IC50 at 72 h: read-out: IC50 (cell viability)
Experimental: (§2) The MTT method was used to evaluate cell viability after 72 h of treatment.
(§3) Human commercial lung diploid fibroblasts (MRC-5), and diploid retinal epithelium cells (RPE) were obtained from the American Type Culture Collection (ATCC) and kindly provided by Dr Francesca Degrassi (CNR IBPM) and maintained in minimal essential medium or DMEM-F12 medium supplemented with fetal calf serum, antibiotics, and nonessential amino acids. Cells were grown at 37 °C, in a humidified atmosphere, with 5% CO2. For experiments, cells were seeded in 200 μL of complete in each well of a 96-well microtiter plate. After 24 h, compounds were added at 5, 10, 25, and 50 μM for 72 h in sextuplicate. MTT was added (0.5 mg/mL), incubated for 4 h at 37 °C, and dissolved in 200 μL of isopropyl alcohol. Absorbance was measured at 570 nm (ELISA reader, DASIT), and cell viability was calculated as viability=(ODoftreatedcells/ODofcontrolcells)×100

[2] = tested on: newly transformed schistosomula (NTS); test: NTS viability phenotypic screening, 72 h; settings: for IC50: Schistosoma mansoni, read-out: IC50 (NTS viability)
Experimental: (§4) For NTS and adult worms, transparent flat-bottom 96- and 24-well plates were used, respectively (Sarstedt, Switzerland). For juvenile worms, 48-well plates were used with 3–6 worms per plate and RPMI medium with 5% FCS and 1% penicillin/streptomycin. Compounds were initially tested at 20 and 10 μM in triplicate on NTS and repeated once; each well contained 30–40 NTS. Phenotypic reference points such as motility, morphology, and granularity were used to score incubated parasites’ overall viability (scores from 0 to 3). […] Identified hits from the NTS screening were tested on adult worms. […] The experiment was conducted in duplicate and repeated; standard deviations were calculated from two wells. […] For all in vitro assays, negative controls (DMSO at the highest tested concentration) were included.

[3] = biological target: T1, human LSD1-CoREST complex (Homo sapiens, UniProt O60341); test: ThermoFAD thermal stability assay; type: binding; settings: LSD1-CoREST thermal stability
T1 construct: made in house
Experimental: Compounds 14–22 were tested against the human LSD1-CoREST complex to determine their inhibitory activity. […] ThermoFAD assays were then performed to assess the impact of 14–22 on the thermal stability (ΔT m values, Table ) of the LSD1-CoREST complex. The most significant shifts in Tm values corresponded to the strongest binders. […] Compound 22 was not tested, considering its previous negative results.
Protein expression, thermal stability, and inhibition of human LSD1-CoREST were performed using established protocols. […] LSD1-CoREST (0.4 μM) was preincubated with the inhibitor at 25 °C for 10 min in the presence of 5% DMSO. The reaction was initiated by adding an equal volume of the substrate solution to the enzyme–inhibitor mixture, and resorufin fluorescence (excitation at 530–570 nm and emission at 580–590 nm) was detected with a Clariostar plate reader.

[4] = biological target: T1, human LSD1-CoREST complex; test: HRP-coupled LSD1 inhibition assay; type: biochemical; settings: 10 min preincubation; for IC50: read-out: IC50 (hLSD1 direct inhibition)
Experimental: Protein expression, thermal stability, and inhibition of human LSD1-CoREST were performed using established protocols. […] The reaction was initiated by adding an equal volume of the substrate solution to the enzyme–inhibitor mixture, and resorufin fluorescence (excitation at 530–570 nm and emission at 580–590 nm) was detected with a Clariostar plate reader.

adult worms [5] = test: Pairing and egg laying of adult worms; type: cell-based, Schistosoma mansoni; settings: for eggs' number: 20 μM; for effect on worm pairing: adult worms
Experimental: Selected compounds 2, 15, 18, and 19 were tested on adult worms to evaluate their effects on pairing and egg laying.

[6] = tested on: S. mansoni juvenile forms; test: Speed-of-action assay in juvenile forms; type: cell-based, Schistosoma mansoni; settings: for IC50: Schistosoma mansoni, read-out: IC50 (speed of action, juvenile forms); for Percentage of effect: juvenile forms
Description: as §1

adult worms [7] = test: Adult worm viability phenotypic assay, 72 h; settings: Schistosoma mansoni, read-out: IC50 (adult worm viability)
Experimental: The life cycle is maintained at the Swiss TPH as described previously. Cercariae were obtained from infected snails by exposing them to a strong light source for 3–4 h in pond water.
as §4

[8] = MTT cytotoxicity in RPE cells; type: cell-based; settings: human, retinal pigment epithelial (RPE) cells; for viability at 72 h, 5 µM / viability at 72 h, 10 µM / viability at 72 h, 25 µM / viability at 72 h, 50 µM: read-out: percentage of viability, 72 h; for IC50 at 72 h: read-out: IC50 (cell viability)
Experimental: as §2, §3

## CCCc1ccc(C(=O)Nc2ccc(C3CC3N)cc2)cc1.Cl (stereo not drawn) [Compound 15, N-(4-(2-Aminocyclopropyl)phenyl)-4-propylbenzamide Hydrochloride]
NTS; 4 h, 10 μM
  Percentage of effect: 21.15%
NTS; 4 h, 20 μM
  Percentage of effect: 38.46%
NTS; 24 h, 10 μM
  Percentage of effect: 50%
NTS; 24 h, 20 μM
  Percentage of effect: 57.14%
NTS; 48 h, 10 μM
  Percentage of effect: 51.02%
NTS; 48 h, 20 μM
  Percentage of effect: 91.84%
NTS; 72 h, 10 μM
  Percentage of effect: 71.43%
NTS; 72 h, 20 μM
  Percentage of effect: 100%
NTS; 4 h
  IC50: > 20 µM
NTS; 24 h
  IC50: 10 µM
NTS; 48 h
  IC50: 9.9 µM
NTS; 72 h
  IC50: 9.3 µM
[1]
  viability at 72 h, 5 µM: 81 ± 16%
  viability at 72 h, 10 µM: 91 ± 20%
  viability at 72 h, 25 µM: 89 ± 17%
  viability at 72 h, 50 µM: 92 ± 20%
  IC50 at 72 h: > 100 µM
[2]; 1 μM
  Percentage of reduction of NTS viability, 72 h: 30.2 ± 1.9%
[2]; 10 μM
  Percentage of reduction of NTS viability, 72 h: 87.5 ± 4.2%
[2]; 20 μM
  Percentage of reduction of NTS viability, 72 h: 100 ± 0.0%
[2]
  IC50: 1.72 µM
[3]
  ΔTm: +9.5 °C
[4]
  IC50: 0.12 ± 0.02 µM
Adult worms [5]; 4 h
  eggs' number: 0
Adult worms [5]; 8 h
  eggs' number: 0
Adult worms [5]; 24 h
  eggs' number: 0
Adult worms [5]; 48 h
  eggs' number: 0
Adult worms [5]; 72 h
  eggs' number: 8
Adult worms [5]
  effect on worm pairing: no impact on worm pairing
[6]; 4 h
  IC50: > 20 µM
[6]; 24 h
  IC50: > 20 µM
[6]; 48 h
  IC50: > 20 µM
[6]; 72 h
  IC50: 4.3 µM
[6]; 4 h, 1 μM
  Percentage of effect: 23.33%
[6]; 4 h, 10 μM
  Percentage of effect: 33.33%
[6]; 4 h, 20 μM
  Percentage of effect: 45.45%
[6]; 24 h, 1 μM
  Percentage of effect: 24.14%
[6]; 24 h, 10 μM
  Percentage of effect: 34.48%
[6]; 24 h, 20 μM
  Percentage of effect: 48.08%
[6]; 48 h, 1 μM
  Percentage of effect: 34.62%
[6]; 48 h, 10 μM
  Percentage of effect: 42.31%
[6]; 48 h, 20 μM
  Percentage of effect: 50%
[6]; 72 h, 1 μM
  Percentage of effect: 40.96%
[6]; 72 h, 10 μM
  Percentage of effect: 44.55%
[6]; 72 h, 20 μM
  Percentage of effect: 70.83%
Adult worms [7]
  IC50: > 10 µM
[8]
  viability at 72 h, 5 µM: 89 ± 3%
  viability at 72 h, 10 µM: 104 ± 12%
  viability at 72 h, 25 µM: 99 ± 6%
  viability at 72 h, 50 µM: 106 ± 17%
  IC50 at 72 h: > 100 µM

## C#Cc1cccc(C(=O)Nc2ccc(C3CC3N)cc2)c1.Cl (stereo not drawn) [Compound 16, N-(4-(2-Aminocyclopropyl)phenyl)-3-ethynylbenzamide Hydrochloride]
[2]; 10 μM
  Percentage of reduction of NTS viability, 72 h: 31.2 ± 6.3%
[2]; 20 μM
  Percentage of reduction of NTS viability, 72 h: 77.8 ± 2.1%
[2]
  IC50: > 10 µM
[3]
  ΔTm: +10 °C
[4]
  IC50: 0.07 ± 0.02 µM
Adult worms [7]
  IC50: > 20 µM

## CC#Cc1ccc(C(=O)Nc2ccc(C3CC3N)cc2)cc1.Cl (stereo not drawn) [Compound 18, N-(4-(2-Aminocyclopropyl)phenyl)-4-(prop-1-yn-1-yl)benzamide Hydrochloride]
NTS; 4 h, 10 μM
  Percentage of effect: 26.92%
NTS; 4 h, 20 μM
  Percentage of effect: 30.77%
NTS; 24 h, 10 μM
  Percentage of effect: 51.79%
NTS; 24 h, 20 μM
  Percentage of effect: 75%
NTS; 48 h, 10 μM
  Percentage of effect: 81.63%
NTS; 48 h, 20 μM
  Percentage of effect: 87.76%
NTS; 72 h, 20 μM
  Percentage of effect: 100%
NTS; 4 h
  IC50: > 20 µM
NTS; 24 h
  IC50: 6.9 µM
NTS; 48 h
  IC50: 4.4 µM
NTS; 72 h
  IC50: 2.4 µM
[1]
  viability at 72 h, 5 µM: 111 ± 10%
  viability at 72 h, 10 µM: 75 ± 15%
  viability at 72 h, 25 µM: 98 ± 14%
  viability at 72 h, 50 µM: 75 ± 12%
  IC50 at 72 h: > 100 µM
[2]; 1 μM
  Percentage of reduction of NTS viability, 72 h: 22.6 ± 1.9%
[2]; 10 μM
  Percentage of reduction of NTS viability, 72 h: 95.8 ± 4.2%
[2]; 20 μM
  Percentage of reduction of NTS viability, 72 h: 100 ± 0.0%
[2]
  IC50: 1.76 µM
[3]
  ΔTm: +8 °C
[4]
  IC50: 0.13 ± 0.02 µM
Adult worms [5]; 4 h
  eggs' number: 0
Adult worms [5]; 8 h
  eggs' number: 0
Adult worms [5]; 24 h
  eggs' number: 0
Adult worms [5]; 48 h
  eggs' number: 0
Adult worms [5]; 72 h
  eggs' number: 2
Adult worms [5]
  effect on worm pairing: no impact on worm pairing
[6]; 4 h
  IC50: > 20 µM
[6]; 24 h
  IC50: > 20 µM
[6]; 48 h
  IC50: > 20 µM
[6]; 72 h
  IC50: 3.8 µM
[6]; 4 h, 1 μM
  Percentage of effect: 20%
[6]; 4 h, 10 μM
  Percentage of effect: 20%
[6]; 4 h, 20 μM
  Percentage of effect: 43.64%
[6]; 24 h, 1 μM
  Percentage of effect: 24.14%
[6]; 24 h, 10 μM
  Percentage of effect: 31.03%
[6]; 24 h, 20 μM
  Percentage of effect: 46.15%
[6]; 48 h, 1 μM
  Percentage of effect: 34.62%
[6]; 48 h, 10 μM
  Percentage of effect: 42.31%
[6]; 48 h, 20 μM
  Percentage of effect: 47.92%
[6]; 72 h, 1 μM
  Percentage of effect: 42.81%
[6]; 72 h, 10 μM
  Percentage of effect: 44.77%
[6]; 72 h, 20 μM
  Percentage of effect: 70.83%
Adult worms [7]
  IC50: > 10 µM
[8]
  viability at 72 h, 5 µM: 82 ± 21%
  viability at 72 h, 10 µM: 86 ± 36%
  viability at 72 h, 25 µM: 104 ± 20%
  viability at 72 h, 50 µM: 95 ± 2%
  IC50 at 72 h: > 100 µM

## Cl.NC1CC1c1ccc(NC(=O)c2ccc(C#Cc3ccccc3)cc2)cc1 (stereo not drawn) [Compound 20, N-(4-(2-Aminocyclopropyl)phenyl)-4-(phenylethynyl)benzamide Hydrochloride]
[2]; 10 μM
  Percentage of reduction of NTS viability, 72 h: 29.2 ± 0.0%
[2]; 20 μM
  Percentage of reduction of NTS viability, 72 h: 77.8 ± 2.1%
[2]
  IC50: > 10 µM
[3]
  ΔTm: +8 °C
[4]
  IC50 (hLSD1 direct inhibition): single-digit μM inhibition
  IC50: 4.02 ± 0.41 µM
Adult worms [7]
  IC50: > 20 µM

From publication PMC12340956, “Tranylcypromine-Based LSD1 Inhibitors as Useful Agents to Reduce Viability of” (ACS Infectious Diseases, 2025)
